tested on: Aβ42; assay: Cellular assay for inhibition of Aβ1-42 production (H4 APP751 SWE clone 8.20); format: cell-based; conditions: 19 h, H4 APP751 SWE clone 8.20 cells, 19 h incubation; read-out: Activity Rating (Aβ42 cellular IC50), class symbol
Experimental: Cellular Assays for Inhibition of Aβ1-40 and Aβ1-42 Production
H4 cells stably transfected with APP751 containing the Swedish mutation (H4 APP751 SWE clone 8.20, developed at BMS) were maintained in log phase through twice weekly passage at a 1:20 split. […] Following incubation for 19 h in 5% CO2 at 37° C., plates were briefly centrifuged (1000 rpm, 5 min). A 10 μl aliquot from each well was transferred to a second assay plate (Costar 3709) for Aβ40 measurements. Antibody cocktails were freshly prepared by dilution into 40 mM Tris-HCl (pH 7.4) with 0.2% BSA and added to assay plates. For Aβ42 measurements, antibodies specific for the Aβ42 neoepitope (565, developed at BMS; conjugated to the Wallac reagent (Perkin Elmer)) and the N-terminal sequence of Aβ peptide (26D6, developed at SIBIA; conjugated to APC (Perkin Elmer)) were mixed and 20 μl of the mixture was added to each well of the incubated cell plate yielding a final concentration of 0.8 ng/well 565 and 75 ng/well 26D6. For the Aβ40 measurements, antibodies specific for the Aβ40 neoepitope (TSD, developed at BMS; conjugated to the Wallac reagent (Perkin Elmer)) and 26D6 as described above were mixed and 20 μl of the mixture was added to the 10 μl aliquots which had been removed previously from the cell plate yielding a final concentration of 1.6 ng/well TSD and 17.5 ng/well 26D6. Assay plates containing antibodies were sealed with aluminum foil and incubated overnight at 4° C. Signal was determined using a Viewlux counter (Perkin Elmer) and IC50 values determined using curve fitting in CurveMaster (Excel Fit based).

SMILES	IC50
CN1C/C=C\COc2cc(ccc2-n2cnc(Cl)c2)Nc2nc3c(c1n2)CCC3c1ccc(F)cc1F (stereo not shown) [Example 18A, (11Z)-7-(4-chloro-1H-imidazol-1-yl)-18-(2,4-difluorophenyl)-14-methyl-10,13,14,16,17,18-hexahydro-15,2-(azeno)-8,4-(metheno)cyclopenta[h][1,6,10,12]oxatriazacycloheptadecine]	< 10 nM
CN1CCCCOc2cc(ccc2-n2cnc(Cl)c2)Nc2nc3c(c1n2)CCC3c1ccc(F)cc1F (stereo not shown) [Example 19A, 7-(4-chloro-1H-imidazol-1-yl)-18-(2,4-difluorophenyl)-14-methyl-10,11,12,13,14,16,17,18-octahydro-15,2-(azeno)-8,4-(metheno)cyclopenta[h][1,6,10,12]oxatriazacycloheptadecine]	< 10 nM
CN1CCCOc2cc(ccc2C#N)Nc2nc3c(c1n2)CCC3c1ccccc1 (stereo not drawn) [Example 31A, 7-cyano-β-methyl-17-phenyl-11,12,13,15,16,17-hexahydro-10H-14,2-(azeno)-8,4-(metheno)cyclopenta[g][1,5,9,11]oxatriazacyclohexadecine]	10 to 100 nM
N#Cc1ccc2cc1OCCCNc1nc(nc3c1CCC3c1ccc(F)cc1F)N2 (stereo not shown) [Example 33A, 7-cyano-17-(2,4-difluorophenyl)-11,12,13,15,16,17-hexahydro-10H-14,2-(azeno)-8,4-(metheno)cyclopenta[g][1,5,9,14]oxatriazacyclohexadecine]	10 to 100 nM
CN1CCCOc2cc(ccc2C#N)Nc2nc3c(c1n2)CCC3c1ccc(F)cc1F (stereo not shown) [Example 35A, 7-cyano-17-(2,4-difluorophenyl)-13-methyl-11,12,13,15,16,17-hexahydro-10H-14,2-(azeno)-8,4-(metheno)cyclopenta[g][1,5,9,11]oxatriazacyclohexadecine]	10 to 100 nM

Results, then the compound that gave them:

IC50	SMILES
< 10 nM	CN1CCCOc2cc(ccc2-n2cnc(Cl)c2)Nc2nc3c(c1n2)CCC3c1ccc(F)cc1F (stereo not shown) [Example 20A, 7-(4-chloro-1H-imidazol-1-yl)-17-(2,4-difluorophenyl)-13-methyl-11,12,13,15,16,17-hexahydro-10H-14,2-(azeno)-8,4-(metheno)cyclopenta[g][1,5,9,11]oxatriazacyclohexadecine]
10 to 100 nM	N#Cc1ccc2cc1OCCCCNc1nc(nc3c1CCC3c1ccccc1)N2 (stereo not shown) [Example 23A, 7-cyano-18-phenyl-10,11,12,13,14,16,17,18-octahydro-15,2-(azeno)-8,4-(metheno)cyclopenta[h][1,6,10,12]oxatriazacycloheptadecine]
100 to 1000 nM	CN1C/C=C\COc2cc(ccc2C#N)Nc2nc3c(c1n2)CCC3c1ccc(F)cc1F (stereo not shown) [Example 28B, (11Z)-7-cyano-18-(2,4-difluorophenyl)-14-methyl-10,13,14,16,17,18-hexahydro-15,2-(azeno)-8,4-(metheno)cyclopenta[h][1,6,10,12]oxatriazacycloheptadecine]

same assay, conditions: 19 h, H4 APP751 SWE clone 8.20 cells, 19 h incubation; unit inferred; read-out: Activity Rating (Aβ42 cellular IC50), numeric value

IC50	SMILES
47 nM	CN1C/C=C\COc2cc(ccc2-n2cnc(Cl)c2)Nc2nc3c(c1n2)CCC3c1ccc(F)cc1F (stereo not shown) [Example 18B, (11Z)-7-(4-chloro-1H-imidazol-1-yl)-18-(2,4-difluorophenyl)-14-methyl-10,13,14,16,17,18-hexahydro-15,2-(azeno)-8,4-(metheno)cyclopenta[h][1,6,10,12]oxatriazacycloheptadecine]
11 nM	CN1CCCOc2cc(ccc2-n2cnc(Cl)c2)Nc2nc3c(c1n2)CCC3c1ccc(F)cc1F (stereo not shown) [Example 20B, 7-(4-chloro-1H-imidazol-1-yl)-17-(2,4-difluorophenyl)-13-methyl-11,12,13,15,16,17-hexahydro-10H-14,2-(azeno)-8,4-(metheno)cyclopenta[g][1,5,9,11]oxatriazacyclohexadecine]
13 nM	CN1C/C=C\COc2cc(ccc2C#N)Nc2nc3c(c1n2)CCC3c1ccc(F)cc1F (stereo not shown) [Example 28A, (11Z)-7-cyano-18-(2,4-difluorophenyl)-14-methyl-10,13,14,16,17,18-hexahydro-15,2-(azeno)-8,4-(metheno)cyclopenta[h][1,6,10,12]oxatriazacycloheptadecine]
31 nM	CN1CCCOc2cc(ccc2C#N)Nc2nc3c(c1n2)CCC3c1ccccc1 (stereo not drawn) [Example 31B, 7-cyano-β-methyl-17-phenyl-11,12,13,15,16,17-hexahydro-10H-14,2-(azeno)-8,4-(metheno)cyclopenta[g][1,5,9,11]oxatriazacyclohexadecine]
37 nM	N#Cc1ccc2cc1OCCCNc1nc(nc3c1CCC3c1ccc(F)cc1F)N2 (stereo not shown) [Example 33B, 7-cyano-17-(2,4-difluorophenyl)-11,12,13,15,16,17-hexahydro-10H-14,2-(azeno)-8,4-(metheno)cyclopenta[g][1,5,9,14]oxatriazacyclohexadecine]
140 nM	CN1CCCOc2cc(ccc2C#N)Nc2nc3c(c1n2)CCC3c1ccc(F)cc1F (stereo not shown) [Example 35B, 7-cyano-17-(2,4-difluorophenyl)-13-methyl-11,12,13,15,16,17-hexahydro-10H-14,2-(azeno)-8,4-(metheno)cyclopenta[g][1,5,9,11]oxatriazacyclohexadecine]

same assay, conditions: H4 APP751 SWE clone 8.20 cells, 19 h incubation; read-out: Activity Rating (Aβ42 cellular IC50), class symbol

SMILES	IC50
Clc1cn(-c2ccc3cc2OCC=CCCc2nc(nc4c2CCC4c2ccccc2)N3)cn1 (stereo not shown) [Example 17B, (11E)-7-(4-chloro-1H-imidazol-1-yl)-18-phenyl-10,13,14,16,17,18-hexahydro-15,2-(azeno)-8,4-(metheno)cyclopenta[h][1,10,12]oxadiazacycloheptadecine]	10 to 100 nM
N#Cc1ccc2cc1OCC=CCNc1nc(nc3c1CCC3c1ccccc1)N2 (stereo not shown) [Example 22A, (11E)-7-cyano-18-phenyl-10,13,14,16,17,18-hexahydro-15,2-(azeno)-8,4-(metheno)cyclopenta[h][1,6,10,12]oxatriazacycloheptadecine]	10 to 100 nM
N#Cc1ccc2cc1OCC=CCNc1nc(nc3c1CCC3c1ccc(F)cc1F)N2 (stereo not shown) [Example 24A, (11Z)-7-cyano-18-(2,4-difluorophenyl)-10,13,14,16,17,18-hexahydro-15,2-(azeno)-8,4-(metheno)cyclopenta[h][1,6,10,12]oxatriazacycloheptadecine]	< 10 nM
CN1CC=CCOc2cc(ccc2C#N)Nc2nc3c(c1n2)CCC3c1ccccc1 (stereo not shown) [Example 30B, (11E)-7-cyano-14-methyl-18-phenyl-10,13,14,16,17,18-hexahydro-15,2-(azeno)-8,4-(metheno)cyclopenta[h][1,6,10,12]oxatriazacycloheptadecine]	10 to 100 nM

The remaining lines, values ahead:

IC50	SMILES
10 to 100 nM	CN1CCCCOc2cc(ccc2-n2cnc(Cl)c2)Nc2nc3c(c1n2)CCC3c1ccc(F)cc1F (stereo not shown) [Example 19B, 7-(4-chloro-1H-imidazol-1-yl)-18-(2,4-difluorophenyl)-14-methyl-10,11,12,13,14,16,17,18-octahydro-15,2-(azeno)-8,4-(metheno)cyclopenta[h][1,6,10,12]oxatriazacycloheptadecine]
< 10 nM	CN1CC=CCOc2cc(ccc2C#N)Nc2nc3c(c1n2)CCC3c1ccccc1 (stereo not shown) [Example 29A, (11Z)-7-cyano-14-methyl-18-phenyl-10,13,14,16,17,18-hexahydro-15,2-(azeno)-8,4-(metheno)cyclopenta[h][1,6,10,12]oxatriazacycloheptadecine]
100 to 1000 nM	CN1CC=CCOc2cc(ccc2C#N)Nc2nc3c(c1n2)CCC3c1ccccc1 (stereo not shown) [Example 29B, (11Z)-7-cyano-14-methyl-18-phenyl-10,13,14,16,17,18-hexahydro-15,2-(azeno)-8,4-(metheno)cyclopenta[h][1,6,10,12]oxatriazacycloheptadecine]
10 to 100 nM	CN1CC=CCOc2cc(ccc2C#N)Nc2nc3c(c1n2)CCC3c1ccccc1 (stereo not shown) [Example 30A, (11E)-7-cyano-14-methyl-18-phenyl-10,13,14,16,17,18-hexahydro-15,2-(azeno)-8,4-(metheno)cyclopenta[h][1,6,10,12]oxatriazacycloheptadecine]

same assay, conditions: H4 APP751 SWE clone 8.20 cells, 19 h incubation; unit inferred; read-out: Activity Rating (Aβ42 cellular IC50), numeric value

IC50	SMILES
5.6 nM	Clc1cn(-c2ccc3cc2OCC=CCCc2nc(nc4c2CCC4c2ccccc2)N3)cn1 (stereo not shown) [Example 17A, (11E)-7-(4-chloro-1H-imidazol-1-yl)-18-phenyl-10,13,14,16,17,18-hexahydro-15,2-(azeno)-8,4-(metheno)cyclopenta[h][1,10,12]oxadiazacycloheptadecine]
7.8 nM	N#Cc1ccc2cc1OCC=CCNc1nc(nc3c1CCC3c1ccccc1)N2 (stereo not shown) [Example 21A, (11Z)-7-cyano-18-phenyl-10,13,14,16,17,18-hexahydro-15,2-(azeno)-8,4-(metheno)cyclopenta[h][1,6,10,12]oxatriazacycloheptadecine]
43 nM	N#Cc1ccc2cc1OCC=CCNc1nc(nc3c1CCC3c1ccc(F)cc1F)N2 (stereo not shown) [Example 24B, (11Z)-7-cyano-18-(2,4-difluorophenyl)-10,13,14,16,17,18-hexahydro-15,2-(azeno)-8,4-(metheno)cyclopenta[h][1,6,10,12]oxatriazacycloheptadecine]

From patent publication US8637523B2, “Compounds for the reduction of beta-amyloid production” (Bristol-Myers Squibb Company, priority 2010, dated 2014)
